This note sets out measurements from patent EP4506015A1, “COMBINATION OF A MPS1 INHIBITOR AND AN ANTIBODY DRUG CONJUGATE” (Nerviano Medical Sciences S.r.l., priority 2023, dated 2025).

For orientation: TGI means the reduction of tumour growth relative to the control group. The term T/C denotes the ratio of treated to control.

The assay concerns LS411N human colorectal cancer cells. Nature of the assay: LS411N colorectal cancer xenograft: tumor growth inhibition, tumor growth delay and tumor regressions. The format is in vivo, Balb/c-nude female mice. The settings on record: for TGI: Day 18, vs vehicle; for Median Time to 500 mm3: study cut-off Day 67; for Tumor regressions at day 67: animals with regression of n=10 mice/group; for T/C: median time to 500 mm3, treated vs vehicle; for Tumor growth delay: time to 500 mm3 vs vehicle. As for the experimental part:
LS411N human colorectal cancer cells were maintained in RPMI-1640 cell culture medium supplemented with 10% fetal bovine serum at 37°C in an atmosphere of 5% CO2 in air. The cells in exponential growth phase were harvested and counted. Balb/c-nude female mice were inoculated subcutaneously at the right flank with 5x10^6 LS411N cells in 0.2 ml of PBS mixed with Matrigel (1:1) for tumor development. Six days after cell injection, animals having a tumor volume of about 200 mm^3 were randomized and allocated to 9 experimental groups (n=10 mice/group) for treatment with vehicle, compound of formula (II) at 13 mg/kg, compound of formula (II) at 20 mg/kg, tisotumab vedotin at 1 mg/kg, tisotumab vedotin at 4 mg/kg and the combinations of the two doses of compound of formula (II) with the two doses of tisotumab vedotin. Compound of formula (II) was administered intravenously every 4 days for 7 times (Days 0, 4, 8, 12, 16, 20 and 24) and tisotumab vedotin was administered intravenously once a week for two weeks (Days 0 and 7). On Day 0, tisotumab vedotin was given first and, after 1h, compound of formula (II) was administered).
Effect of treatment on tumor growth and body weight was evaluated twice times per week. Tumors were measured in two dimensions using a caliper, and the tumor volume was expressed in mm^3 using the formula: V=(L x W2)/2, where V is tumor volume, L is tumor length (the longest tumor dimension) and W is tumor width (the longest tumor dimension perpendicular to L).
From Day 18 onwards, some animals in the vehicle treated groups had to be euthanized due to tumors reaching the ethical endpoint (3000 mm^3), therefore tumor growth inhibition (TGI) for each treatment group was calculated on Day 18, when all the animals in the vehicle group were available for the calculation of the mean tumor volume.
Figure 2 and Figure 3a and Figure 3b show the tumor growth curves of individual animals in each group and the Kaplan-Meier curves representing the time needed for tumors to reach/exceed 500 mm^3, respectively. Study cut-off Day 67.
To better evaluate the combination benefit, tumor growth delay was evaluated as the time needed for tumors to reach/exceed a defined tumor volume (Table 2). The median time for tumors to reach 500 mm^3 was 7 days, 11 days, 14 days, 28 days and 37 days for vehicle, Compound of formula (II) 13 mg/kg, Compound of formula (II) 20 mg/kg, tisotumab vedotin 1 mg/kg and tisotumab vedotin 4 mg/kg single agent groups, respectively. All the combinations induced a strong tumor growth delay when compared to vehicle and single agent treated arms. The median time for tumors to reach 500 mm^3 in the combination at the lower doses of both agents, Compound of formula (II) 13 mg + tisotumab vedotin 1 mg/kg, was 65 days. For the other combination groups the median time for tumors to reach 500 mm^3 had not yet been reached at Day 67. The effect of the combination on tumor growth delay was more than additive for all the combination groups.

Setting [1] is: Compound of formula (II) 13 mg/kg iv every 4 days x7.
[2] abbreviates: Compound of formula (II) 13 mg/kg.
Setting [3] is: Compound of formula (II) 20 mg/kg iv every 4 days x7.
[4] abbreviates: Compound of formula (II) 20 mg/kg.
The mark [5] stands for this setting: tisotumab vedotin 1 mg/kg iv Days 0 and 7.
Setting [6] is: tisotumab vedotin 4 mg/kg iv Days 0 and 7.

For the compound `CCc1cccc(CC)c1NC(=O)c1nn(C)c2c1CCc1cnc(Nc3ccc(N4CCC(N(C)C)CC4)cc3OC)nc1-2` [Compound of formula (II), N-(2,6-diethylphenyl)-8-({4-[4-(dimethylamino)piperidin-1-yl]-2-methoxyphenyl}-amino)-1-methyl-4,5-dihydro-1H-pyrazolo[4,3-h]quinazoline-3-carboxamide], under setting [1], the “Mean Tumor Volume (mm^3) Day 18” value came out at 751 mm^3 and the “Median Time to 500 mm3” value is 11 days. Also, where the note is “Compound of formula (II) 13 mg/kg iv every 4 days x7, 13 mg/kg”, the inhibition of tumour growth (TGI) was found to be 46.4%. Also, under setting [2], the “Tumor regressions at day 67” value is recorded as 0/10, the T/C was 157% and the “Tumor growth delay” value was 4 days. In addition, under setting [3], the “Mean Tumor Volume (mm^3) Day 18” value is listed as 655 mm^3 and the “Median Time to 500 mm3” value is 14 days. Where the note is “Compound of formula (II) 20 mg/kg iv every 4 days x7, 20 mg/kg”, the TGI turned out to be 52.6%. Moreover, under setting [4], the “Tumor regressions at day 67” value was 0/10, the T/C is 200% and the “Tumor growth delay” value was determined as 7 days.

Tisotumab vedotin: under setting [5], the “control of tumor growth (individual tumor growth curves)” value was “controlled tumor growth initially, but between Days 14 and 20 all tumors started growing”; the “Mean Tumor Volume (mm^3) Day 18” value is given as 325 mm^3; the tumour growth inhibition (TGI) was determined as 76.8%; the “Median Time to 500 mm3” value is 28 days. Besides, under “tisotumab vedotin 1 mg/kg”, the “Tumor regressions at day 67” value is 0/10, the T/C stood at 400% and the “Tumor growth delay” value amounted to 21 days. Under setting [6], the “control of tumor growth (individual tumor growth curves)” value was “controlled tumor growth and induced tumor regressions initially, but after Day 20 tumors started to regrow as well”; the “Mean Tumor Volume (mm^3) Day 18” value came out at 147 mm^3; the TGI was determined as 89.5%; the “Median Time to 500 mm3” value amounted to 37 days. In addition, for the setting “tisotumab vedotin 4 mg/kg”, the “Tumor regressions at day 67” value is on record as 0/10, the T/C is 529% and the “Tumor growth delay” value is 30 days.
